Experiment: gradient 5% acetonitrile 3 min, to 50% in 2 min, to 85% in 15 min, held 3 min, 100 µL/min
Conditions: column: Zorbax Extend-C18 2.1 x 50 mm; eluents: water / acetonitrile, 0.1% formic acid
Procedure, shortened: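 Retention times come from adduct peaks that were picked computationally and then checked by hand. The standards, pure and pooled in mixtures of ~100 molecules, were run on a Zorbax Extend-C18 column (2.1 × 50 mm, 1.8 μm) at 100 μL/min with water and acetonitrile, each with 0.1% formic acid. Detection was by quadrupole time-of-flight mass spectrometry in positive and negative ionization mode, with a dead volume of 40 μL and a dwell volume of 900 μL.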

SMILES	RP-LC retention time [s]
CCCC1c2nccn2CCCN1C(=O)c1occc1C (stereo not drawn)	611
CC(C)(N)C(=O)N[C@H](COCc1ccccc1)C(=O)N1CCC2(CC1)CN(S(C)(=O)=O)c1ccccc12	777
CCOC(=O)c1c(S(=O)(=O)N2CCC(C(=O)NCc3cccs3)CC2)c(C)n(C)c1C	774
Cc1c(C2CCN(C(=O)c3ccco3)CC2)noc1N	620
Cc1ccc(S(=O)(=O)N2CC(F)(F)C[C@H]2CN2CCc3ccccc3C2)c(C)c1	816
COc1ccc(OC)c(CNc2c(-c3nc(C(C)C)no3)cnc3nc(C)ccc23)c1	784
CC(C)NC(=O)c1ccc(OCC2CCN(C(=O)C(C)C)CC2)cc1	756
COc1ccc(C(=O)N2C[C@@H]3C[C@H](NC(=O)c4cccs4)[C@H]2C3)cc1F	733
CCCN1C(=O)COc2ccc(-c3noc(COc4ccc(OC)cc4)n3)cc21	1100
CCNC(=O)C1CCCN(c2nc3ncn(CC(=O)NCc4ccc(C)cc4)c(=O)c3s2)C1 (stereo not drawn)	716
COc1cccc(-c2noc(C3CCCN3C(=O)Nc3cc(C)ccc3C)n2)c1 (stereo not drawn)	1020
Cc1occc1C(=O)NC1CCc2nn(C)c(=O)n2CC1 (stereo not drawn)	604
CC(C)CNC(=O)N1C[C@@H]2CCCN3CCC[C@@H]([C@H]23)[C@H]1CCCC(=O)NCC1CC1	603
CC1(C)C(=O)N(CC(=O)NCc2ccccc2Cl)c2ccccc21	881
O=C(Cn1c(=O)c2cccn2c2ccc(F)cc21)NCCC1=CCCCC1	952
COc1ccccc1/C=C/C(=O)/C=C/c1ccccc1O	772
COc1cc(NC(C)=O)c2ncccc2c1NC(C)=O	631
COCc1nc(-c2ccc(OC3CNC3)cc2)no1	578
CCCOc1ccc(CNC(=O)CN2CCN(Cc3ccc(F)cc3)C2=O)cc1	903
COc1ccc(C2(C(=O)N3CCC(Cc4nc(-c5ccccc5)n[nH]4)C3)CC2)cc1 (stereo not drawn)	734
O=S(=O)(Nc1ccccc1)c1ccc(-c2nnc(C3CCC3)o2)o1	883
C=CCN(CC=C)S(=O)(=O)c1ccc2nc(NC(=O)Cc3cccs3)sc2c1	936

SMILES	RP-LC retention time [s]
CCN1CCN(C(=O)c2c(C)sc3ccn(CC(C)C)c(=O)c23)CC1	598
CCOC(=O)c1sc2nc(C)cc(C)c2c1NC(=O)CCS(=O)(=O)c1ccccc1	759
Cc1ccc2[nH]cc(CCN3CC(C(=O)Nc4ccccc4)CC3=O)c2c1 (stereo not drawn)	801
O=C(Nc1cnc(N2CCN(CCOc3ccc(Cl)cc3)CC2)c(C(=O)O)c1)c1ccc(F)cc1	694
CCCN1C(=O)COc2ccc(-c3csc(NC(=O)c4cc(OC)c(OC)c(OC)c4)n3)cc21	1040
COc1ccc(-c2noc(-c3ccc(N4CCN(c5ncccn5)CC4)nn3)n2)cc1	923
COc1cccc(Cn2nc3ccc(S(=O)(=O)N4CCCC4)cn3c2=O)c1	814
CCCn1c(=O)sc2cc(S(=O)(=O)N3CCN(C(=O)C4CCN(C(C)=O)CC4)CC3)ccc21	722
COCCN1C(=O)CC[C@]2(C(=O)N(C)CCc3ccccn3)CCCC[C@@H]12	546
CC(C)c1ccc(N2C(=O)C3N=NN(Cc4nc(-c5ccc(Br)cc5)no4)C3C2=O)cc1 (stereo not drawn)	1220
O=C1[C@H](Cc2ccc(O)cc2)N2C(=O)CCN(C(=O)NCc3ccccc3)[C@H]2CN1Cc1cccc2ccccc12	847
COc1cccc(-c2nnc(SCC(=O)NCc3cccnc3)n2-c2ccccc2)c1	573
CC1=C(c2ccc(C)cc2)S(=O)(=O)N=C1N1CCC(NC(=O)CCC(C)C)CC1	888
CCN1C(=O)COc2ccc(-c3noc(-c4ccccc4)n3)cc21	1140
COc1ccc(-n2cc(C(=O)Oc3cccnc3)c3ccccc3c2=O)cc1	911
CCc1c(C2CCN(C(=O)NCCc3ccccc3)CC2)noc1N	732
CCNC(=O)N1CC(c2nc(-c3ccc(F)cc3)no2)C2(CCOCC2)C1 (stereo not drawn)	751
Cc1nn(C(C)C(=O)NCCc2c[nH]c3ccccc23)c(=O)c2c(C)n(-c3ccccc3)nc12 (stereo not drawn)	904
Cc1ccc(NC(=O)c2cnn3c2CCCC3)cc1	770
Cc1ccc(Nc2c(-c3c(F)cccc3Cl)nc3ccc(Cl)cn23)cc1	994
Cn1cc(-c2cc3n(n2)CCC(=O)N3CC(=O)N2CCN(c3ccccn3)CC2)c2ccccc21	626
Cc1ccc2c(Nc3ccc(Cl)cc3)c(C(=O)N3CCSCC3)cnc2n1	634

SMILES	RP-LC retention time [s]
Cc1nnsc1C(=O)Nc1nnc(SCc2ccc(Cl)c(Cl)c2)s1	1020
O=C(NCc1ccccn1)C1CCN(S(=O)(=O)c2cc(C(=O)N3CCCC3)cs2)CC1	609
Cc1ccc(S(=O)(=O)N(C)CCCC(=O)N2CCN(c3ccccn3)CC2)cc1	576
O=C(CN1C[C@H]2C[C@H](C1)[C@H]1CCCC(=O)N1C2)NCc1cccs1	578
O=C(C1CCCN(c2nc3cccnc3s2)C1)N1CCN(c2ccccc2)CC1 (stereo not drawn)	844
COc1nn(C)cc1C(=O)Nc1ccc(-c2cn3ccsc3n2)cc1	575
O=C(CSc1nc2ccc([N+](=O)[O-])cc2s1)c1ccc(F)cc1	1030
O=C1CC(C(F)(F)F)c2c(c(C(=O)O)cn2-c2ccc(Cl)cc2)N1 (stereo not drawn)	786
COc1ccc(N2CCN(c3ccc4cc(S(=O)(=O)N5CCCC5)ccc4n3)CC2)cc1	855
CCn1nnc2c(N3CCN(S(=O)(=O)c4cccc(Cl)c4)CC3)ncnc21	880
CC1=C(c2ccc(C)cc2)S(=O)(=O)N=C1N1CCCN(C(=O)c2ccccc2)CC1	837
O=S(=O)(c1ccccc1Br)N1CCc2nc(-c3ccccc3)ncc2C1	1090
CC(C)(C)CCN1CCC(F)(c2nc(-c3ccccc3)no2)CC1	789
CCCNC(=O)N1CCc2c(c(-c3nc(-c4ccccc4)no3)nn2C)C1	825
CCc1c(C)nc2nc(-c3ccccc3)nn2c1NCc1ccc(C)cc1	996
CC(C)CN1C(=O)c2cccn2CC1CNC(=O)c1cccn1C (stereo not drawn)	733
CCOc1ccc(-c2ccc(=O)n(CCNC(=O)c3cc(C)oc3C)n2)cc1	765
O=C1CCc2cc(NC(=O)c3cccnc3)ccc2N1	579
CC(=O)Nc1ccc(-n2cnc(C(=O)NCCC3=CCCCC3)c2)nc1	739
Cc1ccc(NC(=O)N2CCN(CCn3cnc4cccnc43)CC2)c(Cl)c1	584
O=C(Nc1cccc([N+](=O)[O-])c1)C(=O)Nc1ccc2c(c1)N(C(=O)C1CC1)CCC2	883
CSc1ccc(-c2noc(Cn3c(=O)n(-c4cccc(C)c4)c(=O)c4sccc43)n2)cc1	1070

SMILES	RP-LC retention time [s]
O=C(c1ccsc1)N1CCC2(CCC2N2CCOCC2)CC1 (stereo not drawn)	581
O=C1CC(c2ccccc2Cl)Cc2nc(N3CCN(Cc4ccc5c(c4)OCO5)CC3)ncc21 (stereo not drawn)	765
Cn1nc(-c2nnc(-c3ccc(F)cc3)o2)c2c1CCN(S(=O)(=O)c1cccc3cccnc13)C2	882
Cc1nn2c(CNS(=O)(=O)Cc3cccc(Cl)c3)c(-c3ccccc3)nc2s1	978
CCc1nnc(-c2ccc(S(=O)(=O)NC3CCCC3)o2)o1	815
O=S(=O)(c1cc(F)ccc1F)N1CCc2nc(-c3ccc(F)cc3)ncc2C1	1100
CCN1C(=O)c2cccnc2Sc2cc(NC(=O)c3ccc(C)cc3)ccc21	859
CCc1ccc(-c2noc(CN3C(=O)C(C)Oc4ccccc43)n2)cc1 (stereo not drawn)	1160
Cc1nc2ncnn2c(N2CCC(C)CC2)c1C	1020
CNC(=O)c1ccc(N2C(=S)N(c3cnc(C#N)c(C(F)(F)F)c3)C(=O)C23CCC3)cc1F	993
O=S(=O)(c1cc(-c2nnc(C3CCC3)o2)co1)N1CCC(N2CCCCC2)CC1	642
Cc1cc(C(F)(F)F)nc(Nc2nc(C)c3ccccc3n2)n1	679
CCOC(=O)c1noc2ncnc(NCCc3ccccc3)c12	936
O=C(C1CCCO1)N1CCCn2nc(-c3cccs3)cc2C1 (stereo not drawn)	689
Cn1cnc2c1CN(C(=O)c1ccc(Br)o1)CC2	563
O=C(NCc1cccc(F)c1)C1CCCN(c2nnc3ccc(Cl)cn23)C1 (stereo not drawn)	645
Cc1ccc2[nH]cc(CCN3CC(C(=O)Nc4cccc(C)c4C)CC3=O)c2c1 (stereo not drawn)	820
Cc1cccc(-c2ccc(N3CCCC(C(=O)NC4CCCC4)C3)nn2)c1 (stereo not drawn)	708
COc1ccccc1-c1nnc(-c2cc(S(=O)(=O)N3CCCCC3)ccc2Cl)o1	1080
CCCN1C(=O)Cc2cc(C(=O)NC3CC3)ccc21	652
Cc1ccc(C2CC(=O)c3cnc(N4CCN(c5ccccc5)CC4)nc3C2)cc1 (stereo not drawn)	1340
Cn1cc(S(=O)(=O)N2CCCCC2)cc1C(=O)Nc1ccc2c(c1)OCO2	924

Reference: the METLIN SMRT retention time set (Domingo-Almenara et al. 2019)
